Assay results as given in PubChem BioAssay (NCI).
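Test compounds were applied to cells in 96-well plates for 48 hours at 5 doses. The concentration for full growth arrest is given as TGI.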

Columns and labels:
Test in all cases: NCI-60 cell line screen, 48 h
[1] = tested on: OVCAR-5 ovarian
[2] = tested on: A498 renal
[3] = tested on: NCI-H23 lung
[4] = tested on: HT29 colon
[5] = tested on: KM12 colon
[6] = tested on: HL-60(TB) leukemia
[7] = tested on: OVCAR-4 ovarian
[8] = tested on: SK-MEL-28 melanoma
[9] = tested on: NCI/ADR-RES ovarian
[10] = tested on: M14 melanoma

O=C1/C(=C/c2ccc(Br)s2)NC(=S)N1CN1CCOCC1
TGI [1]: > 100 µM
TGI [2]: > 100 µM
TGI [3]: > 100 µM
TGI [4]: > 100 µM
TGI [5]: > 100 µM
TGI [6]: 62.6 µM
TGI [7]: > 100 µM
TGI [8]: > 100 µM
TGI [9]: > 100 µM

CN1CCN(C(=S)N(C)C(=O)c2ccc(Cl)cc2)CC1
TGI [1]: > 100 µM
TGI [10]: > 100 µM
TGI [3]: > 100 µM
TGI [4]: > 100 µM
TGI [5]: > 100 µM
TGI [6]: > 100 µM
TGI [7]: > 100 µM
TGI [8]: > 100 µM

CC(=O)Nc1ccc(Cl)c(Cl)c1
TGI [10]: > 100 µM
TGI [3]: > 100 µM
TGI [4]: > 100 µM
TGI [5]: > 100 µM
TGI [8]: > 100 µM

CCOC(=O)C1CC(O)C(=O)N1C (stereo not given)
TGI [1]: > 100 µM
TGI [10]: > 100 µM
TGI [3]: > 100 µM
TGI [4]: > 100 µM
TGI [6]: > 100 µM
TGI [7]: > 100 µM
TGI [8]: > 100 µM

Cc1cc2cccc(Cl)c2nc1C(=O)c1ccccc1
TGI [1]: > 100 µM
TGI [10]: > 100 µM
TGI [3]: > 100 µM
TGI [5]: > 100 µM
TGI [7]: > 100 µM
TGI [8]: > 100 µM

COc1ccc(CNc2nc3ccc(C(F)(F)F)cc3nc2-c2ccccc2)cc1OC
TGI [1]: > 100 µM
TGI [3]: > 100 µM
TGI [4]: > 100 µM
TGI [6]: > 100 µM
TGI [8]: > 100 µM

CC(=O)CC(=O)c1cc2c(=O)oc(C)cc2oc1=O
TGI [1]: > 37.5 µM
TGI [10]: > 37.5 µM
TGI [3]: > 37.5 µM
TGI [4]: > 37.5 µM
TGI [5]: > 37.5 µM
TGI [6]: > 37.5 µM
TGI [7]: > 37.5 µM
TGI [8]: > 37.5 µM
TGI [9]: > 37.5 µM

CCn1c(=O)c2c3cc(O)ccc3oc2c2ccc(O)cc21
TGI [10]: > 100 µM
TGI [2]: 55.5 µM
TGI [3]: > 100 µM
TGI [4]: 77.5 µM
TGI [5]: > 100 µM
TGI [7]: > 100 µM
TGI [8]: > 100 µM
TGI [9]: > 100 µM

CCOC(=O)c1c(N)n(-c2ccccc2)c(=S)n(-c2ccccc2)c1=O
TGI [1]: > 100 µM
TGI [10]: > 100 µM
TGI [3]: > 100 µM
TGI [4]: > 100 µM
TGI [5]: > 100 µM
TGI [6]: > 100 µM
TGI [7]: > 100 µM
TGI [8]: > 100 µM

CO/N=C1/c2sccc2[C@H](NC(=O)CNC(=O)OC(C)(C)C)[C@@H]1O
TGI [1]: > 100 µM
TGI [10]: > 100 µM
TGI [2]: > 100 µM
TGI [3]: > 100 µM
TGI [4]: > 100 µM
TGI [6]: > 100 µM
TGI [7]: > 100 µM
TGI [8]: > 100 µM
TGI [9]: > 100 µM

O=C(CCc1ccc(O)cc1)c1c(O)cc(O)cc1OC1OC(CO)C(O)C(O)C1O (stereo not given)
TGI [1]: > 100 µM
TGI [10]: > 100 µM
TGI [2]: > 100 µM
TGI [3]: > 100 µM
TGI [4]: > 100 µM
TGI [5]: > 100 µM
TGI [7]: > 100 µM
TGI [8]: > 100 µM
TGI [9]: > 100 µM

COc1cccc(C2c3cc4c(cc3OC(N3CCCC3)C2C)OCO4)c1OC (stereo not given)
TGI [1]: 17.9 µM
TGI [10]: 23.8 µM
TGI [4]: 11.3 µM
TGI [5]: 15.1 µM
TGI [9]: 15 µM

COc1cc2c(cc1OC)C(=O)/C(=C/c1cc(C)c(O)c(C)c1)C2
TGI [1]: 13.5 µM
TGI [10]: > 100 µM
TGI [2]: > 100 µM
TGI [3]: > 100 µM
TGI [6]: > 100 µM
TGI [7]: > 100 µM
TGI [8]: > 100 µM
TGI [9]: > 100 µM

CC(C)=CC1C(C(=O)O)C1(C)C (stereo not given)
TGI [1]: > 750 µM
TGI [2]: > 34.8 µM
TGI [3]: > 750 µM
TGI [4]: > 750 µM
TGI [5]: > 750 µM
TGI [6]: > 750 µM
TGI [7]: > 750 µM
TGI [8]: > 750 µM
TGI [9]: > 750 µM
